Measured values from US6372297B1, “Wood preservative oxathiazines” (Uniroyal Chemical Company, Inc., priority 1993, dated 2002).

What was measured:
[1] = system: mixed spore suspension of blue-stain fungus and molds; assay: Activity against blue-stain fungi and molds in a mold cabinet test (BS3900: Part G6)
Method: Using the methods described in BS3900: Part G6: 1989, British Standard Methods of test for paints, “Assessment of resistance to fungal growth”, representative compounds of this invention were tested for activity against blue-stain fungus and molds in a mold cabinet test. In brief, sticks of Scots pine (Pinus sylvestris) measuring 75×100×10 mm, were painted, allowed to dry, and sterilized by […] (1.2 mRad). […] The sticks were then with each solution. The inoculation consisted of dipping the sticks in a mixed spore suspension, then placing them in a mold chamber and incubating them for 12 weeks. The surfaces were evaluated according the following score system: 0: No growth 1: […] 2: […] 3: […] 4. […] 5. Growth covering more than 70% of the inoculated test area.

[2] = system: mixed spore suspension: Aureobasidium pullulans, Aspergillus amstelodami, Ceratocystis pilifera, Cladosporium sp., Penicillium sp., Sclerophomas entoxylina …; assay: Control of molds and sapstain fungi in mini-board test; design: key to Surface score of treated mini-boards, 3 week incubation, 1500 ppm / Surface score of treated mini-boards, 3 week incubation, 2500 ppm: 0: Free of fungal growth; 1: Traces of fungal growth; 2: Little fungal growth; 3: Moderate fungal growth; 4: Vigorous to maximum growth (all surfaces covered with fungal growth)
Description: Representative compounds of this invention to be tested, were suspended in an aqueous solution containing 7.5% GENAPOL X 080™ (Hoechst-Celanese Corporation), and 20% propylene glycol monomethyl ether, to prepare the test solutions. […]
Deep frozen boards (300×50×10 mm) of freshly felled sapwood of Pinus sylvestrus (mini-boards) were thawed at room temperature. One half of each mini-board was immersed in a test solution for 20 seconds. The mini-boards were then sprayed with mixed spore suspension containing the following fungi:
Sclerophomas entoxylina, and
and stored in incubation boxes at 25° C. and at 100% relative humidity, for three weeks. For each compound tested, each concentration of test solution was applied to five different mini-boards.
The efficacy of the test compounds was determined by comparing the fungal growth on both the treated and untreated parts of the mini-boards.
The degree of infection was scored according to the following scale:
1=Traces of fungal growth
4=Vigorous to maximum growth (all surfaces covered with fungal growth)

[3] = system: blue-stain fungi and molds; assay: Activity against blue-stain fungi and molds on a stick test on vermiculite (paint film); design: key to Surface score of wooden sticks treated with paint formulation, C. cladosporioides / Surface score of wooden sticks treated with paint formulation, P. purpurogenum / Surface score of wooden sticks treated with paint formulation, P. violacea / Surface score of wooden sticks treated with paint formulation, R rubra (y) / Surface score of wooden sticks treated with paint formulation, S. chartarum / Surface score of wooden sticks treated with paint formulation, A. versicolor / Surface score of wooden sticks treated with paint formulation, A. pullulans: 0: No growth; Trace of growth of up to 1% coverage of the test inoculated area; 2: Growth covering between 1 and 10% of the inoculated test area; Growth covering between 10 and 30% of the inoculated test area; 4: Growth covering between 30 and 70% of the inoculated test area; 5: Growth covering more than 70t of the inoculated test area; conditions: 12 weeks on vermiculite; for Surface score of wooden sticks treated with paint formulation, R rubra (y): R rubra (yeast)
Method: Beech sticks (73×18×2 mm) Fagus sylvatica were painted, allowed to dry, and sterilized by γ-radiation (1.2 mRad). […] The coated sticks prepared above were then dipped in a spore suspension of pure culture of each fungus. Seven sticks each were placed in autoclaved Petri dishes (200 mm in diameter, 30 mm in height) containing 300 ml of vermiculite and 120 ml of water, and incubated for 12 weeks. The surfaces of the sticks were then examined for the growth of fungus and were evaluated according to the following scoring system: 0: No growth 1: […] 2: […] 3: […] 4. […] 5. Growth covering more than 70t of the inoculated test area.

[4] = system: molds and blue-stain fungi; assay: In vitro activity against molds and blue-stain fungi, poison plate assay (MIC); assay type: cell-based; conditions: malt extract agar, complete inhibition
Method: The effect of the representative compounds on the growth of certain molds and blue-strain fungi were determined using a poison plate assay according to the following procedure: The solutions of the representative compounds prepared above were further diluted with sterile water to desired concentrations and poured into Petri dishes. Malt extract agar medium was then added aseptically to the Petri dishes and to Petri dishes containing no compound (controls). The Petri dishes were then shaken to provide a uniform distribution of the agar medium. Each Petri dish containing compound and each control Petri dish, was then inoculated with a fungus and incubated for a period of time sufficient to permit complete growth of the fungus in the respective control Petri dish. The Petri dishes containing compound were then examined to determine the amount of inhibition of fungi for each concentration of compound tested.

[5] = system: blue-stain fungi and molds; assay: Activity against blue-stain fungi and molds in a stick test (threshold concentrations); conditions: beech sticks, 22° C., 90% relative humidity
Method: Representative compounds of this invention were dissolved in 50% ethanol. Each compound was then diluted serially using 50% ethanol. […] After three (3) hours, the solutions containing the test compounds were poured off and the treated sticks were allowed to dry in a sterile laminar air flow. Each treated stick was then placed in a Petri dish which had been previously seeded with inoculum. Two drops of a test fungal or spore suspension were pipetted onto the upper surface of each treated stick. The Petri dishes containing the treated sticks were incubated at 22° C. and 90% relative humidity. The treated sticks were evaluated after there was sufficient growth of fungus on control sticks (i.e., untreated sticks) incubated in the same manner. The following score system was used: 0: Stick free of fungal/mold growth 1: Traces of fungal growth on the stick 2: Slight growth (5 to 25% of the surface covered with fungal growth) 3: Moderate growth (25 to 50% covered with fungal growth) 4. Vigorous to maximum fungal growth (more than 50% growth) […]

SMILES: [O-][S+]1CCON=C1c1ccc(Br)s1 (stereo not drawn) [Compound 36]
- Surface score in a paint formulation in a mold cabinet test, 6 weeks ([1]; 0.15% in water-based paint): 2.5
- Surface score in a paint formulation in a mold cabinet test, 12 weeks ([1]; 0.15% in water-based paint): 4.5
- Surface score in a paint formulation in a mold cabinet test, 6 weeks ([1]; 0.3% in water-based paint): 2.5
- Surface score in a paint formulation in a mold cabinet test, 12 weeks ([1]; 0.3% in water-based paint): 4.0
- Surface score of treated mini-boards, 3 week incubation, 1500 ppm [2]: 0.2
- Surface score of treated mini-boards, 6 week incubation, 1500 ppm [2]: 2.6
- Surface score of treated mini-boards, 3 week incubation, 2500 ppm [2]: 0
- Surface score of treated mini-boards, 6 week incubation, 2500 ppm [2]: 1.4
- Surface score of wooden sticks treated with paint formulation, A. pullulans ([3]; 0.15% a.i. in paint): 0
- Surface score of wooden sticks treated with paint formulation, A. pullulans ([3]; 0.3% a.i. in paint): 0
- Surface score of wooden sticks treated with paint formulation, A. versicolor ([3]; 0.15% a.i. in paint): 0
- Surface score of wooden sticks treated with paint formulation, A. versicolor ([3]; 0.3% a.i. in paint): 0
- Surface score of wooden sticks treated with paint formulation, C. cladosporioides ([3]; 0.15% a.i. in paint): 0
- Surface score of wooden sticks treated with paint formulation, C. cladosporioides ([3]; 0.3% a.i. in paint): 0
- Surface score of wooden sticks treated with paint formulation, P. purpurogenum ([3]; 0.15% a.i. in paint): 1 (Trace of growth of up to 1% coverage of the test inoculated area)
- Surface score of wooden sticks treated with paint formulation, P. purpurogenum ([3]; 0.3% a.i. in paint): 1 (Trace of growth of up to 1% coverage of the test inoculated area)
- Surface score of wooden sticks treated with paint formulation, P. violacea ([3]; 0.15% a.i. in paint): 3 (Growth covering between 10 and 30% of the inoculated test area)
- Surface score of wooden sticks treated with paint formulation, P. violacea ([3]; 0.3% a.i. in paint): 1 (Trace of growth of up to 1% coverage of the test inoculated area)
- Surface score of wooden sticks treated with paint formulation, R rubra (y) ([3]; 0.15% a.i. in paint): 0
- Surface score of wooden sticks treated with paint formulation, R rubra (y) ([3]; 0.3% a.i. in paint): 0
- Surface score of wooden sticks treated with paint formulation, S. chartarum ([3]; 0.15% a.i. in paint): 0
- Surface score of wooden sticks treated with paint formulation, S. chartarum ([3]; 0.3% a.i. in paint): 0
- Surface score of wooden sticks treated with paint formulation, U. atrum ([3]; 0.15% a.i. in paint): 3 (Growth covering between 10 and 30% of the inoculated test area)
- Surface score of wooden sticks treated with paint formulation, U. atrum ([3]; 0.3% a.i. in paint): 1 (Trace of growth of up to 1% coverage of the test inoculated area)

SMILES: [O-][S+]1CCON=C1c1ccsc1 (stereo not drawn) [Compound 79]
- Surface score of treated mini-boards, 3 week incubation, 1500 ppm [2]: 1.0
- Surface score of treated mini-boards, 6 week incubation, 1500 ppm [2]: 3.0
- Surface score of treated mini-boards, 3 week incubation, 2500 ppm [2]: 0
- Surface score of treated mini-boards, 6 week incubation, 2500 ppm [2]: 1.8

SMILES: Cc1ccc(C2=NOCCS2(=O)=O)s1 [Compound 49]
- Surface score of treated mini-boards, 3 week incubation, 1500 ppm [2]: 0
- Surface score of treated mini-boards, 6 week incubation, 1500 ppm [2]: 1.8
- Surface score of treated mini-boards, 3 week incubation, 2500 ppm [2]: 0
- Surface score of treated mini-boards, 6 week incubation, 2500 ppm [2]: 1.2

SMILES: [O-][S+]1CCON=C1c1cc2ccccc2s1 (stereo not drawn) [Compound 87]
- MIC (ppm) against A. amstelodami ([4]; A. amstelodami): 5 ppm
- MIC (ppm) against A. niger ([4]; A. niger): 2.5 ppm
- MIC (ppm) against A. pullulans ([4]; A. pullulans): 10 ppm
- MIC (ppm) against A. versicolor ([4]; A. versicolor): 2.5 ppm
- MIC (ppm) against C. cladosporioides ([4]; C. cladosporioides): 25 ppm
- MIC (ppm) against C. pilifera ([4]; C. pilifera): 2.5 ppm
- MIC (ppm) against F. solani ([4]; F. solani): 10 ppm
- MIC (ppm) against G. candidum ([4]; G. candidum): 25 ppm
- MIC (ppm) against P. purpurogenum ([4]; P. purpurogenum): 2.5 ppm
- MIC (ppm) against P. variotii ([4]; P. variotii): 10 ppm
- MIC (ppm) against P. violacea ([4]; P. violacea): 10 ppm
- MIC (ppm) against S. atra ([4]; S. atra): 2.5 ppm
- MIC (ppm) against S. entoxylina ([4]; S. entoxylina): 5 ppm
- MIC (ppm) against T. viride ([4]; T. viride): 10 ppm
- MIC (ppm) against U. atrum ([4]; U. atrum): 10 ppm
- Threshold concentration (ppm), A. niger, score 0 ([5]; A. niger, minimum concentration to obtain score 0): 1000 ppm
- Threshold concentration (ppm), A. niger, score 1-2 ([5]; A. niger, minimum concentration to obtain score 1-2): 250-500 ppm
- Threshold concentration (ppm), Aureobasidium, score 0 ([5]; Aureobasidium, minimum concentration to obtain score 0): 1000 ppm
- Threshold concentration (ppm), Aureobasidium, score 1-2 ([5]; Aureobasidium, minimum concentration to obtain score 1-2): 100-250 ppm
- Threshold concentration (ppm), Sclerophoma, score 0 ([5]; Sclerophoma, minimum concentration to obtain score 0): 100 ppm
- Threshold concentration (ppm), Sclerophoma, score 1-2 ([5]; Sclerophoma, minimum concentration to obtain score 1-2): 50-100 ppm
- Threshold concentration (ppm), Trichoderma, score 0 ([5]; Trichoderma, minimum concentration to obtain score 0): 5000 ppm
- Threshold concentration (ppm), Trichoderma, score 1-2 ([5]; Trichoderma, minimum concentration to obtain score 1-2): 1000-2500 ppm

SMILES: O=S1(=O)CCON=C1c1ccsc1 [Compound 78]
- Surface score of treated mini-boards, 3 week incubation, 1500 ppm [2]: 0.2
- Surface score of treated mini-boards, 6 week incubation, 1500 ppm [2]: 1.2
- Surface score of treated mini-boards, 3 week incubation, 2500 ppm [2]: 0.2
- Surface score of treated mini-boards, 6 week incubation, 2500 ppm [2]: 1.8

SMILES: Cc1ccc(C2=NOCC[S+]2[O-])s1 (stereo not drawn) [Compound 48]
- Surface score of treated mini-boards, 3 week incubation, 1500 ppm [2]: 0
- Surface score of treated mini-boards, 6 week incubation, 1500 ppm [2]: 1.4
- Surface score of treated mini-boards, 3 week incubation, 2500 ppm [2]: 0
- Surface score of treated mini-boards, 6 week incubation, 2500 ppm [2]: 0.8
